Measured values from article PMC3448056, “2-Benzamido-N-(1H-benzo[d]imidazol-2-yl)thiazole-4-carboxamide derivatives as potent inhibitors of CK1δ/ε” (Amino Acids, 2012).
Values joined by “and” are separate entries in the source; they are usually repeats but may differ in a detail not shown here. Equal entries are not always repeated. Where two headings read alike, the source gives them in different places.

What was measured:
GST-rat CK1δ^M82F = target: T1, GST-rat CK1δ^M82F (Rattus norvegicus, UniProt Q06486, M82F); test: In vitro kinase assay, gatekeeper mutant; format: biochemical; conditions: inhibitor at its determined IC50 concentration (Fig. 7)
T1 construct: made in house; host or cells: bacteria (pGEX-2T)
T1 sequence (Q06486 1-415 M82F): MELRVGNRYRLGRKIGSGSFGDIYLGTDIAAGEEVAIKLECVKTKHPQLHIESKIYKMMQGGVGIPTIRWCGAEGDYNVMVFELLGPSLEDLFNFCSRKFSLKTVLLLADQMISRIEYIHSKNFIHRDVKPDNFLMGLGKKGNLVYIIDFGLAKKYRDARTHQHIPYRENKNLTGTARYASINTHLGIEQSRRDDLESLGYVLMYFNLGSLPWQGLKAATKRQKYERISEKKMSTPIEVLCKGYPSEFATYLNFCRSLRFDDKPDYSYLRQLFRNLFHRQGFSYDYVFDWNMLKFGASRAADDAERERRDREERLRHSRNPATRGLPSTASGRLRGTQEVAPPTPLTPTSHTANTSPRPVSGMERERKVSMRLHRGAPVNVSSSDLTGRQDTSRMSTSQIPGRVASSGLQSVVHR
Experimental: For the expression of wt rat CK1δ and rat CK1δ^M82F as glutathione S-transferase fusion proteins the plasmids pGEX-2T-CK1δ (FP449) (Knippschild et al. [1997]) and pGEX-2T-CK1δ^M82F (FP1153) (Peifer et al. [2009]) were used.
(§1) Expression and purification of the GST-fusion proteins GST-mouse p53^1–64 (FP267), GST-rat CK1δ (FP449), GST-rat CK1δ^M82F (FP1153), GST-mouse CK1δTV1 (FP1170), and GST-mouse CK1δTV2 (FP1171) was carried out as described elsewhere (Wolff et al. [2005]). Expression of fusion proteins FP1170 and 1171 was either performed at 37°C for 2 h, or at 15°C for 14 h. FP449 and FP1153 were always expressed at 15°C for 14 h.
(§2) In vitro kinase assays were carried out in the presence of various potential inhibitors of CK1δ at an ATP concentration of 0.01 mM and dimethyl sulfoxide (DMSO) solvent control as described previously (Knippschild et al. [1996]). Where indicated higher ATP concentrations (0.05, 0.1, 0.25 and 0.5 mM) were used. The fusion protein GST-mouse p53^1−64 (FP267) was used as substrate. Recombinant CK1δ kinase domain (CK1δkd, NEB, Frankfurt am Main, Germany), GST-rat CK1δ (FP449), GST-rat CK1δ^M82F (FP1153), GST-mouse CK1δTV1, GST-mouse CK1δTV2 and recombinant human CK1ε (Invitrogen, Karlsruhe, Germany) were used as sources of enzyme. Phosphorylated proteins were separated by SDS-PAGE and the protein bands were visualized on dried gels by autoradiography. The phosphorylated protein bands were excised and quantified by Cherenkov counting.
Previously it has been shown that methionine 82 plays an important role as gatekeeper residue in the docking mode of isoxazoles to the ATP binding pocket since mutation of methionine 82 to phenylalanine blocks binding of this class of CK1δ specific inhibitors (Peifer et al. [2009]) while still binding ATP. Therefore, we now analyzed the effects of exchanging methionine 82 to phenylalanine on the ability of compounds 4, 5 and 6 to inhibit CK1δ activity.

Frwt648 cells = test: Flow cytometry cell cycle analysis; format: cell-based; conditions: Frwt648, 2 and 4 μM, 48 h; range stated jointly for Frwt648 and mKSA and compounds 5 and 6
Experimental: Frwt648 cells [generated by SV40-transformation of F111 cells; (Hinzpeter and Deppert [1987])] and mKSA cells [SV40-transformed Balb/c fibroblasts; (Kit et al. [1969])] were grown in Dulbecco’s modified Eagle’s medium (DMEM) supplemented with 5% fetal calf serum (FCS; Biochrom, Berlin, Germany). The fibrosarcoma cell line HT1080 (Rasheed et al. [1974]) was grown in DMEM containing 10% FCS and 2 mM glutamine while both the prostate cancer cell line DU-145 (Stone et al. [1978]) and the ovary tissue cancer cell line OVCAR-3 (Hamilton et al. [1983]) were maintained in RPMI-1640 supplemented with 10% FCS. The pancreatic cancer cell line Colo357 (Morgan et al. [1980]) was grown in DMEM/RPMI (1:1) and the colon adenocarcinoma cell line SW480 (Leibovitz et al. [1976]) in Leibovitz L-15 medium, both containing 10% FCS and 2 mM glutamine. All media were supplemented with 100 U/ml penicillin and 100 μg/ml streptomycin (Gibco, Karlsruhe, Germany) and all cell lines were grown at 37°C in a humidified 5% carbon dioxide atmosphere.
Subconfluent Frwt648, mKSA, Colo357, OVCAR-3, HT1080, DU-145 and SW480 cells were treated with 2 or 4 μM of compounds 5 or 6 for 48 h. Untreated and DMSO treated cells served as control. Cells were harvested, washed once with phosphate-buffered saline (PBS), and prepared for cell cycle analysis using the “Cycle Test Plus Kit” (BD, San Jose, USA). […]

GST-rat CK1δ = target: T2, GST-rat CK1δ (Rattus norvegicus, UniProt Q06486); test: In vitro kinase assay, GST-rat CK1δ; format: biochemical; conditions: for GST-wt CK1δ activity in the presence of inhibitor: inhibitor at its determined IC50 concentration (Fig. 7)
T2 construct: made in house; host or cells: bacteria (pGEX-2T)
T2 sequence (Q06486 whole entry): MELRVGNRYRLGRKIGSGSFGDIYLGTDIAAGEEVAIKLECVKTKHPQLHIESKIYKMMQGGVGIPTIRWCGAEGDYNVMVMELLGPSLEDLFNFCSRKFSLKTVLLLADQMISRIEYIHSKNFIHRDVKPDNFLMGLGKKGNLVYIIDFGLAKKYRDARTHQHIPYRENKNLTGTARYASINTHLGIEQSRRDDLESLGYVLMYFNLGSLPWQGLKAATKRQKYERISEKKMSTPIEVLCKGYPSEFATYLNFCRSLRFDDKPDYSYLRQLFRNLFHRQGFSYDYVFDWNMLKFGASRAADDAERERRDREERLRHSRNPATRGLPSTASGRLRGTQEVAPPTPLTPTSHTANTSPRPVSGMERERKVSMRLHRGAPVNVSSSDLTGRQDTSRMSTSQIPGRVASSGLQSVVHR

GST-mouse CK1δTV1 = target: T3, GST-mouse CK1δTV1 (Mus musculus, UniProt Q9DC28); test: In vitro kinase assay, GST-mouse CK1δTV1; format: biochemical
T3 construct: made in house; host or cells: bacteria (pGEX-2T)
T3 sequence (Q9DC28 whole entry): as the sequence (Q06486 whole entry) above
Source text: CK1δTV1 and 2 (transcription variants 1 and 2) were PCR amplified from mouse cDNA (5′-primer TV1 and 2: 5′-[…]-3′, 3′-primer TV1: 5′-[…]-3′, 3′-primer TV2: 5′-[…]-3′) and cloned into pcDNA3.1/V5-His© TOPO® TA cloning vector (Invitrogen, Karlsruhe, Germany) before being subcloned into pGEX-2T expression vector via BamHI to generate plasmids pGEX-2T-mouse CK1δTV1 (FP1170) and pGEX-2T-mouse CK1δTV2 (FP1171).
as §1, §2

human CK1ε = target: T4, human CK1ε (Homo sapiens, UniProt P49674); test: In vitro kinase assay, CK1ε; format: biochemical; conditions: for inhibition of CK1ε in initial screen: inhibitor 10 μM, 10 μM ATP (Fig. 1b)
T4 construct: purchased Invitrogen, Karlsruhe, Germany
T4 sequence (P49674 whole entry): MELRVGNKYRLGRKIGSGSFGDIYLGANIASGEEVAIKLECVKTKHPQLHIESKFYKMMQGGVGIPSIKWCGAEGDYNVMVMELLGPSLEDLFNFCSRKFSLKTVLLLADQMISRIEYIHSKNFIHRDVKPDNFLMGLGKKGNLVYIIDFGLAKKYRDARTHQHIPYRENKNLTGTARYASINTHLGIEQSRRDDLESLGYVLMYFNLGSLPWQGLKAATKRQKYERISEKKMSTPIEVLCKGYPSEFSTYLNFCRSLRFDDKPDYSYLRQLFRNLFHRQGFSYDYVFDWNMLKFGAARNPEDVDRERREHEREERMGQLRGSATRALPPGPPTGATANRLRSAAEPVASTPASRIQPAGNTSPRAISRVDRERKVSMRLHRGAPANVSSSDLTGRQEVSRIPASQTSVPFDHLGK

[1] = 0.01 mM ATP, substrate GST-mouse p53^1-64, mean ± SD, read-out: IC50 (μM) GST-CK1δ TV1
[2] = 0.01 mM ATP, substrate GST-mouse p53^1-64, mean ± SD

Row | Structure (SMILES) | kinase activity of GST-CK1δ^M82F in comparison with inhibition of GST-wt CK1δ (GST-rat CK1δ^M82F) | dead cells (Frwt648 cells) | GST-wt CK1δ activity in the presence of inhibitor (GST-rat CK1δ) | higher affinity towards CK1δ than to CK1ε (GST-rat CK1δ; ratio of IC50 values CK1ε / CK1δ) | IC50 (GST-mouse CK1δTV1; [1]) | IC50 (GST-mouse CK1δTV1; IC50 CK1δTV1, 2 h, enzyme induced for 2 h at 37°C) | IC50 (GST-mouse CK1δTV1; enzyme induced for 14 h at 15°C, read-out: IC50 CK1δTV1, 14 h) | inhibition of CK1ε in initial screen (human CK1ε) | IC50 (GST-rat CK1δ; [2]) | IC50 (human CK1ε; [2])
1 | O=C(Nc1nc2ccc(C(F)(F)F)cc2[nH]1)c1csc(NC(=O)c2ccccc2OC(F)(F)F)n1 [Compound 5, 2-(2-(Trifluoromethoxy)benzamido)-N-(6-(trifluoromethyl)-1H-benzo[d]imidazol-2-yl)thiazole-4-carboxamide] | much more affected | 35–98% | clearly decreased | fivefold | 0.022 ± 0.02 µM | 0.066 µM | 0.023 µM | significant inhibition | – | –
2 | O=C(Nc1nc2cc(Cl)c(F)cc2[nH]1)c1csc(NC(=O)c2ccccc2OC(F)(F)F)n1 [Compound 6, N-(5-Chloro-6-fluoro-1H-benzo[d]imidazol-2-yl)-2-(2-(trifluoromethoxy)benzamido)thiazole-4-carboxamide] | similarly or even less affected | 35–98% | clearly decreased | – | 0.048 ± 0.02 µM | – | – | significant inhibition | 0.042 ± 0.05 µM | 0.0326 µM and 0.033 µM
